Patent US20020168417A1, “Agrochemical compositions and surfactant compounds” (priority 1999, published 2002)
Like-named read-outs stand apart in the source and are kept apart here.

What was measured:
[1] = in vivo
Experimental: (§1) The irritancy of the products of some of the synthesis examples (if necessary after purification) was tested using standard testing protocols.

[2] = in vivo; remark: listed apart in the source
Experimental: as §1

[3] = test system: Daphnia magna; assay: aquatic toxicity to Daphnia magna, standard bio-assay; format: in vivo; details: end of the 48 hour assay procedure
From the text: The results are given below:

[4] = test system: fungal leaf rust (Puccinia recondite); assay: AE5 field trial, tebuconazole fungicide with adjuvant on winter wheat leaf rust; format: in vivo; details: infected leaf area
Experimental: Field trials were carried out to test the effectiveness of fungicide on winter wheat (variety Versailles) using the active Horizon EW (tebuconazole) (250 g.I^−1) in the control of fungal leaf rust (Puccinia recondite). The plots were sprayed at a spray volume 300 I.ha^−1, with the adjuvants added as tank mix additives at a concentration of 0.1% weightivolume on the spray. The normal application rate (NAR) for Horizon alone is 1 I.ha^−1 (250 g.ha^−1) and this was used as a control together with 0.75 I.ha^−1 (187.5 g.ha^−1; […]). An untreated control was also included. For these trials, adjuvant containing formulations were at ¾ NAR for the active and 0.1% weight/volume (300 g.ha^−1) adjuvant The effect of the spraying was assessed 3 weeks after treatment and is expressed as % infected leaf area (2 and 3 top leaves).

[5] = irritancy, standard testing protocols: eye; details: in vivo
Experimental: as §1

[6] = irritancy, standard testing protocols: skin; details: in vivo
Experimental: as §1

[7] = tebuconazole 187.5 g · ha^−1, adjuvant (where used) 300 g · ha^−1, 3 weeks after treatment
[8] = tebuconazole 250 g · ha^−1, adjuvant (where used) 300 g · ha^−1, 3 weeks after treatment

| Compound | Irritation assessment Skin [1] | Irritation assessment Eye [2] | EC50 for immobilising the Daphnia [3] [mg.I^−1] | other results |
| --- | --- | --- | --- | --- |
| 1-(N,N-bis(N-1-deoxyglucitylamino)amonium)-2-hydroxy-3-dodecyloxy Propane Sulphate [SE25] | slight | moderate | – | – |
| 1-(N-1-deoxyglucitylamino)2-hydroxyl-3-(branched octadecyloxy poly-10PO-10EO) propane [SE21] | slight/moderate | practically none/slight | 31.4 | – |
| CC(C)(C)C(O)(CCc1ccc(Cl)cc1)Cn1cncn1 (racemic) [tebuconazole, (RS)1-p-chlorophenyl4,4-dimethyl-3-(1H-1,2,4triazole-1-ylmethyl)-pentan-3ol] | – | – | – | % infected 2 leaf [4, 7]: 2.5%; % infected 3 leaf [4, 7]: 10%; % infected 2 leaf [4, 8]: 2.5%; % infected 3 leaf [4, 8]: 2.5% |
| CCCCCCCCCCOCC(O)CN(C)C[C@H](O)[C@@H](O)[C@H](O)[C@H](O)CO (some centres unmarked) [SE10, 1-(N-methyl-N-1-deoxyglucitylamino)2-hydroxy-3-decyloxy propane] | practically none | moderate/severe | – | – |
| CCCCCCCCCCCCCCOCC(O)CN(CC(O)C(O)C(O)C(O)CO)CC(O)C(O)C(O)C(O)CO (centres unmarked) [SE20, 1-(N-bis-sorbitylamino)2-hydroxyl-3-tetradecyloxy propane] | – | – | >100 | – |
| Betaine from 1-(N-1-deoxyglucitylamino)-2-hydroxy-3-dodecyloxy Propane [SE23] | – | – | – | Irritation assessment Eye [5]: moderate; Irritation assessment Skin [6]: slight |
